{
  "source": "patent US20230242948A1",
  "about": "“OLEIC ACID PRODUCED FROM MICROORGANISM AND METHOD FOR PRODUCING OLEIC ACID USING MICROORGANISM” (KOREA INSTITUTE OF SCIENCE AND TECHNOLOGY, priority 2022, published 2023)",
  "assay_type_in_all_cases": "cell-based",
  "key": {"[1]": {"system": "transformed Yarrowia lipolytica", "test": "Oleic acid production depending on concentration of added hexanoic acid, glucose and xylose medium (Test Example 2)", "settings": "for oleic acid concentration increased by / oleic acid content increased by / oleic acid concentration: 168 hours; for oleic acid concentration increased by / oleic acid content increased by: vs Comparative Example 3; for oleic acid concentration: 0.377 g/L without hexanoic acid", "procedure": "Specifically, wild-type Yarrowia lipolytica was transformed in the same manner as in Example 2 and hexanoic acid at 0 g/L (Comparative Example 3), 0.2 g/L (Example 3), 0.6 g/L (Example 4) or 1 g/L (Example 5) was added to a minimal medium containing 20 g/L glucose and 10 g/L xylose as carbon sources (20 g/L glucose, 10 g/L xylose, 6.7 g/L yeast nitrogen base, CSM-ura (MP Biomedicals, Solon, USA), pH 6.8 potassium phosphate buffer). Then, after inoculating the transformed microorganism to the medium, shaking culture was conducted at 28° C. and 200 rpm. After culturing for 168 hours, the microorganism was separated from the culture through centrifugation and the amount of produced lipids was measured from the separated strain. The amount of produced oleic acid was calculated through lipid assay and the amount of glucose and xylose consumed as carbon sources was measured from the separated culture."}, "[2]": {"system": "recombinant Yarrowia lipolytica", "test": "Culture of recombinant lipid-producing microorganism (peroxisomal biogenesis factor 10 deleted, diacylglycerol acyltransferase overexpressed) in glucose minimal medium with or without hexanoic acid (Test Example 1)", "procedure": "(§1) As an exemplary embodiment of the present disclosure, after deleting peroxisomal biogenesis factor 10 (SEQ ID NO 1), which is a lipid degradation-related gene, from the wild-type Yarrowia lipolytica (microorganism accession number ATCC MYA-2613) of Example 1 using the CRISPR/Cas9 system, a lipid-producing microorganism was prepared by overexpressing diacylglycerol acyltransferase, which is a key gene in a lipid-producing metabolic pathway, using a vector (pMCS-12TEF-DGA1-CYC1t, SEQ ID NO 3) comprising a UAS1B enhancer, a TEF (translational elongation factor) promoter and a gene encoding diacylglycerol acyltransferase (SEQ ID NO 2). Then, after inoculating the microorganism to a minimal medium containing glucose as a carbon source (20 g/L glucose, 6.7 g/L yeast nitrogen base, CSM-ura (MP Biomedicals, Solon, USA), pH 6.8 potassium phosphate buffer) and supplemented with 1 g/L hexanoic acid, shaking culture was conducted at 28° C. and 200 rpm. After culturing for 144-168 hours, the microorganism was separated from the culture through centrifugation.\nas §1, with “After” for “As an exemplary embodiment of the present disclosure, after”, “buffer),” for “buffer) and supplemented with 1 g/L hexanoic acid,”\n(§2) In order to investigate the consumption of the carbon source in the medium and the content of the produced lipids depending on the addition of hexanoic acid during the culturing of the lipid-producing microorganisms, the amount of biomass (dry cell weight) and lipids produced from the microorganisms isolated in Examples 1-2 and Comparative Examples 1-2 was measured. The amount of produced oleic acid was calculated through lipid assay and the amount of consumed glucose was measured form the separated cultures."}, "[3]": {"system": "wild-type Yarrowia lipolytica (ATCC MYA-2613)", "test": "Culture of wild-type lipid-producing microorganism in glucose minimal medium with or without hexanoic acid (Test Example 1)", "settings": "1 g/L hexanoic acid", "procedure": "As an exemplary embodiment of the present disclosure, wild-type Yarrowia lipolytica (microorganism accession number ATCC MYA-2613) was inoculated to a minimal medium containing glucose as a carbon source (20 g/L glucose, 6.7 g/L yeast nitrogen base, CSM-ura (MP Biomedicals, Solon, USA), pH 6.8 potassium phosphate buffer) and supplemented with 1 g/L hexanoic acid. Then shaking culture was conducted at 28° C. and 200 rpm. After culturing for 144-168 hours, the microorganism was separated from the culture through centrifugation.\nAfter inoculating wild-type Yarrowia lipolytica (microorganism accession number ATCC MYA-2613) to a minimal medium containing glucose as a carbon source (20 g/L glucose, 6.7 g/L yeast nitrogen base, CSM-ura (MP Biomedicals, Solon, USA), pH 6.8 potassium phosphate buffer), shaking culture was conducted at 28° C. and 200 rpm. After culturing for 144-168 hours, the microorganism was separated from the culture through centrifugation.\nas §2"}, "[4]": {"settings": "Example 3, 0.2 g/L hexanoic acid"}, "[5]": {"settings": "Example 4, 0.6 g/L hexanoic acid"}},
  "data": [
    {"molecule": "CCCCCC(=O)O", "note": "[hexanoic acid]", "values": [
      {"measurement": "oleic acid concentration increased by", "setting": "[1]; [4]", "result": 10.5, "unit": "%"},
      {"measurement": "oleic acid content increased by", "setting": "[1]; [4]", "result": 27.4, "unit": "%"},
      {"measurement": "oleic acid concentration", "setting": "[1]; [4]", "result": 0.417, "unit": "g/L"},
      {"measurement": "oleic acid concentration increased by", "setting": "[1]; [5]", "result": 40.3, "unit": "%"},
      {"measurement": "oleic acid content increased by", "setting": "[1]; [5]", "result": 40.1, "unit": "%"},
      {"measurement": "oleic acid concentration", "setting": "[1]; [5]", "result": 0.529, "unit": "g/L"},
      {"measurement": "oleic acid concentration increased by", "setting": "[1]; Example 5, 1 g/L hexanoic acid", "result": 61.2, "unit": "%"},
      {"measurement": "oleic acid content increased by", "setting": "[1]; Example 5, 1 g/L hexanoic acid", "result": 52.1, "unit": "%"},
      {"measurement": "oleic acid concentration", "setting": "[1]; Example 5, 1 g/L hexanoic acid", "result": 0.608, "unit": "g/L"},
      {"measurement": "consumption of xylose", "setting": "[1]; hexanoic acid added to medium with 20 g/L glucose and 10 g/L xylose, FIG. 8", "result": "increased remarkably"},
      {"measurement": "increase of lipid production as compared to Comparative Example 2", "setting": "[2]; 1 g/L hexanoic acid, 144-168 hours, FIG. 2", "result": "about 10%"},
      {"measurement": "consumption rate of the carbon source glucose", "setting": "[2]; Example 2, 1 g/L hexanoic acid, 20 g/L glucose, 28° C., FIG. 1", "result": "increased"},
      {"measurement": "intracellular lipid content", "setting": "[2]; Example 2, 1 g/L hexanoic acid, 50.3% without hexanoic acid (Comparative Example 2)", "result": 73.8, "unit": "%"},
      {"measurement": "content of oleic acid in the produced lipids", "setting": "[2]; Example 2, 1 g/L hexanoic acid, FIG. 3", "result": "~61", "unit": "%"},
      {"measurement": "relative oleic acid production as compared to Comparative Example 1 (wild-type strain, medium not comprising hexanoic acid)", "setting": "[2]; Example 2, recombinant strain plus 1 g/L hexanoic acid, FIG. 4", "result": "about 3.3 times"},
      {"measurement": "lipid production (in words)", "setting": "[3]", "result": "not increased significantly"},
      {"measurement": "consumption rate of the carbon source glucose", "setting": "[3]; 20 g/L glucose, 28° C., FIG. 1", "result": "increased"},
      {"measurement": "increase of lipid production as compared to Comparative Example 1", "setting": "[3]; 144-168 hours, FIG. 2", "result": "about 10%"},
      {"measurement": "content of oleic acid in the produced lipids", "setting": "[3]; FIG. 3", "result": 66, "unit": "%"}
    ]}
  ]
}
